The source of these data is patent EP4813383A1, “USE OF TAFAMIDIS AND PHARMACEUTICALLY ACCEPTABLE SALT THEREOF IN PREVENTION, ALLEVIATION, OR TREATMENT OF DISEASES ASSOCIATED WITH HIF-2a” (Huaya Jiyuan (Shenzhen) Pharmaceutical Co., Ltd., priority 2024, dated 2025).

Counter-ions that a name gives are not always drawn.

The assay has as its target T1, HIF-2α (Homo sapiens, UniProt Q99814).
T1 construct: 786-O is a renal carcinoma cell line that predominantly expresses HIF-2α and lacks functional HIF-1α; endogenous in cells; host or cells: 786-O cells stably carrying an HRE-driven luciferase reporter
Nature of the assay: Luciferase reporter gene assay (HRE-driven luciferase in stably transfected 786-O cells). The class given is cell-based. An excerpt:
Experimental principles: 786-O is a renal carcinoma cell line that predominantly expresses HIF-2α and lacks functional HIF-1α. This characteristic makes 786-O cells an ideal model for studying HIF-2α transcriptional activity and related signaling pathways. In the luciferase reporter gene assay, a 786-O monoclonal cell line that stably expresses hypoxia response element (HRE)-driven luciferase (Luc) activity is obtained through puromycin selection. The HIF-2α agonist promotes dimerization of HIF-2α and HIF-β, and activates an HRE promoter. By measuring fluorescence intensity, luciferase activity can be determined, thereby assessing the ability of the HIF-2α agonist to promote transcription.
Experimental method: A total of 6000 stably transfected 786-O cells stably containing HRE and Luc sequences are seeded in each well of a 96-well plate, and 100 µL of RPMI-1640 culture medium containing 10% fetal bovine serum is added to each well. After 24 hours, a compound at a corresponding concentration is added to each well. A blank group is set as a control. Only a DMSO solvent is added in the well of the blank group. For initial compound screening, both tafamidis and tafamidis meglumine are tested at two concentrations: 2 µM and 20 µM. For concentration-gradient determination, each concentration is tested in triplicate. After co-incubation for 24 hours, the culture medium is discarded, and 20 µL of firefly luciferase reporter gene cell lysis buffer (RG126M, Beyotime) is added to each well. The 96-well plate is shaken on a microplate shaker for 10 minutes. After shaking, 10 µL of lysate is transferred into a white opaque plate, and then 10 µL of Steady-Lumi™ firefly luciferase assay reagent (RG058S, Beyotime) is added to each well. Finally, luminescence is measured using a microplate reader (Agilent Synergy Neo2). E20 represents the effect of the compound at a 20 µM concentration, and is calculated as: E20 = fluorescence value of the 20 µM well ÷ fluorescence value of the blank control × 100%. E2 represents the effect of the compound at a 2 µM concentration, and is calculated as: E2 = fluorescence value of the 2 µM well ÷ fluorescence value of the blank control × 100%. EC50 is the compound concentration at which the agonistic efficacy is increased by 50% relative to the blank control. The agonistic efficacy of a compound is determined by calculating the concentration (EC50) required to achieve a 50% increase in the fluorescence activity relative to the blank control and a maximum activation percentage (Emax). The maximum activation percentage (Emax) of an agonist refers to a ratio, expressed as a percentage, of the fluorescence value corresponding to the maximal effect (observed maximal response) induced when the agonist concentration reaches receptor-binding saturation in a particular receptor system, to the fluorescence value of the receptor system in the absence of agonist. In this experiment, Vyndaqel is directly used in place of tafamidis meglumine.
In general terms: A reporter such as luciferase makes a cellular process visible.

T1 sequence (Q99814 whole entry): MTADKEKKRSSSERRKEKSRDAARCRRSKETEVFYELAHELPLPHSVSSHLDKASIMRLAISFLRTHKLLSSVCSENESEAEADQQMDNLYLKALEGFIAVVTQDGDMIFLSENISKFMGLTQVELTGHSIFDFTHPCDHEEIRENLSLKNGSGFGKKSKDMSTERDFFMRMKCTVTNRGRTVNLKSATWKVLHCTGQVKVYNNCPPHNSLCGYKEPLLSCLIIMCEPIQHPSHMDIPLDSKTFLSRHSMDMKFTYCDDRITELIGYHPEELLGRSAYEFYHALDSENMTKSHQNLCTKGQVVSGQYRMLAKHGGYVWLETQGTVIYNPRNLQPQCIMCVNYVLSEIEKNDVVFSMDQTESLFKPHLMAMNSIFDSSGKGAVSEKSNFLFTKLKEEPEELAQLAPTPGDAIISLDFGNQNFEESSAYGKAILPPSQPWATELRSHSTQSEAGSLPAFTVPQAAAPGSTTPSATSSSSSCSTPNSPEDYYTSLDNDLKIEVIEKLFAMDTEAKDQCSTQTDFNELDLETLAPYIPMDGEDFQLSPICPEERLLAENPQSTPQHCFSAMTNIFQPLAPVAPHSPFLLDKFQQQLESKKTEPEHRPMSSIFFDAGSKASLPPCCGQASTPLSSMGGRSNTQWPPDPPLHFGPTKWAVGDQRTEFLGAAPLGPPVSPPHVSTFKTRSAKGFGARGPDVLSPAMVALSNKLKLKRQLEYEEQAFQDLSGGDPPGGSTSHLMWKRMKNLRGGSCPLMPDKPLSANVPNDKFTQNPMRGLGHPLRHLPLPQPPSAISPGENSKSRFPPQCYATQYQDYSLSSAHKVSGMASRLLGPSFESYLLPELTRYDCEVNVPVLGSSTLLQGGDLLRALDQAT
T1 sequence (P27540 whole entry partner): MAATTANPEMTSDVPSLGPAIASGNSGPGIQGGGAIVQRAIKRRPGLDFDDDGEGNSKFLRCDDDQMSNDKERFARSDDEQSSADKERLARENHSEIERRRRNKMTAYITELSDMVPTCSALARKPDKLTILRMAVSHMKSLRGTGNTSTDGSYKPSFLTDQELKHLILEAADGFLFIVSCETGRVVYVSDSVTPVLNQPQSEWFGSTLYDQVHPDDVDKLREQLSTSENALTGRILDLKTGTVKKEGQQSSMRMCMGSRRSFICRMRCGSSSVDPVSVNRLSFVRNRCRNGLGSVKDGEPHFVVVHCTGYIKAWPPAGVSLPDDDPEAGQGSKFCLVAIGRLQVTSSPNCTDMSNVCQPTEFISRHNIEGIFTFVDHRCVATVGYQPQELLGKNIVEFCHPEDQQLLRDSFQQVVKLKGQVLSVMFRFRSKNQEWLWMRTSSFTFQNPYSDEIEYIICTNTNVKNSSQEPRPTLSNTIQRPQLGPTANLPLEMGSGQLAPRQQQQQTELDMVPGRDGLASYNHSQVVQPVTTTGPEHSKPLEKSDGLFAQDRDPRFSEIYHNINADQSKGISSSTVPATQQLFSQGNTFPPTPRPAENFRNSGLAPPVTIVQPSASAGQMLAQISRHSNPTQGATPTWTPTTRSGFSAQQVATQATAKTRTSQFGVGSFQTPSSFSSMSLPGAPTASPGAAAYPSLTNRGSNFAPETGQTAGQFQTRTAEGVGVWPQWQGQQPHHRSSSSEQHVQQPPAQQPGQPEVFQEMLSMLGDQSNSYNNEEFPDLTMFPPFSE

Turning to `O=C(O)c1ccc2nc(-c3cc(Cl)cc(Cl)c3)oc2c1` [tafamidis meglumine, 1-deoxy-1-(methylamino)-D-glucitol salt of 2-(3,5-dichlorophenyl)-1,3-benzoxazole-6-carboxylic acid], for the setting “2 µM, 24 hours co-incubation, fluorescence value as % of blank control (DMSO)”, the “agonistic efficacy at a 2 µM concentration (E2)” value amounted to 122%. Moreover, the “agonistic efficacy at a 20 µM concentration (E20)” value (20 µM, 24 hours co-incubation, fluorescence value as % of blank control (DMSO)) was found to be 223%. In addition, under “EC50, concentration required for a 50% increase in fluorescence activity relative to the blank control, 24 hours”, the EC50 stood at 970 nM. In addition, the “Emax (maximum activation percentage)” value (maximal response as % of fluorescence without agonist) worked out at 228%.
